Experimental findings from patent US20240141291A1, “FUNCTIONAL BRAIN REGION-SPECIFIC NEURAL SPHEROIDS AND METHODS OF USE” (THE UNITED STATES OF AMERICA, AS REPRESENTED BY THE …, priority 2021, published 2024) are described below.

Entries after “also recorded” stand apart in the source; their conditions may differ.

Holding throughout (assay type): cell-based, human
In assay [1] the test system is APOE4 PFC-like spheroids. Description: Alzheimer's Disease model, FLIPR calcium activity after compound treatment. Particulars: 90 min after treatment, Memantine 10 μM, Donepezil 1 & 10 uM, EUK-134 1 & 10 μM. The protocol: (§1) Fluorescent Imaging plate Reader (FLIPR): The FLIPR Penta (Molecular Devices) was used to assess calcium fluorescence across the 384-well plate simultaneously and to observe changes after treatment with compounds. The evening before calcium activity was measured, plates were sealed with parafilm and centrifuged at 1485×g for 2-min to get spheroids to the bottom of the well in a centered position. On the day of recording, the plate used for recording was placed in the read plate position inside of the FLIPR following the 2-hour Cal6 incubation at 37° C. Standard filter sets were used for Cal6 imaging with excitation set at 470-495 and emission at 515-575 nm. Fluorescent image reads were taken every 0.6 seconds for all plates, with exposure time of 0.03 and 50% excitation intensity. Recordings from the initial seven plates consisted of 1000 reads and were 10-min recordings with 2.5 gain, while the final two plates consisted of 500 reads (5-min recordings) with a gain of 2. Baseline recordings were taken across all plates and, if applicable, more recordings were obtained 1-, 30-, 60-, and/or 90-min after compound treatment. In between recordings, plates were wrapped in foil and placed back in the incubator at 37° C.
384 Pin Tool: A 384 well pin tool (Rexroth) was used to transfer compounds simultaneously to the spheroid plate. Prior to compound transfer, the pin tool went through four wash cycles where pins were rinsed with dimethyl sulfoxide (DMSO), followed by methanol, then deionized (DI) water, to ensure the pins were clean. Compound transfer via the 384 well pin tool occurred after the baseline recordings with the fluorescent imaging plate reader (FLIPR). […]
Calcium Activity Analysis: Calcium oscillatory peak detection data from FLIPR recordings was obtained through ScreenWorks 5.1 (Molecular Devices). […] There, percent coefficient of variance (% CV) was calculated within each plate to measure how variable each parameter exported was. […]

Assay [2] concerns PFC-like spheroids. Description: FLIPR calcium activity with Cal6 dye, control compounds / DAMGO / AD compounds (Example 3). Particulars: for functional response (calcium activity peak parameters) to control compound: PFC-like spheroids, recordings 1-, 30-, 60-min after treatment; for effect on peak count and peak spacing: 10 μM DAMGO, recording 30-min later, then naloxone. On the procedure:
(§2) Viruses and dyes: To assess calcium activity, the calcium dye, Cal6 (Molecular Devices), and genetically encoded calcium indicator, GCaMP6f (Addgene, cat #100836-AAV9) were used. Cal6 was used according to manufacturer's instructions and 10 mL of maintenance media was added to each vial. Two hours before activity was recorded, half of the spheroid media was exchanged for media with Cal6. The plates were covered in foil and placed in the incubator at 37° C. during the 2-hour (hr) incubation period. Since all viruses used were adeno-associated viruses (AAV), they were added to the media on day 7 to allow for 2-weeks expression prior to recording or testing. All viruses were added to the media at 2e5 multiplicity of infection (MOI). GCaMP6f infection occurred via an adeno-associated virus serotype 9 (AAV9) expressed under the CAG promoter for expression in both neurons and astrocytes. Designer receptors exclusively activated by designer drugs (DREADDs) viruses were used to stimulate and inhibit neuronal activity within spheroids. Both viruses were retrograde AAVs expressed under the human Synapsin promoter for expression in neurons and fused with an mCherry fluorophore. The DREADDs viruses either inserted the designer receptor hM4D(Gi), an inhibitory G-protein coupled receptor, or hM3D(Gq), a stimulatory G-protein coupled receptor. Clozapine-N-oxide (CNO, Tocris cat #4936) was suspended in dimethyl sulfoxide (DMSO) and used as the designer drug to activate the DREADDs viruses. CNO was tested at 1 and 10 μM, with data reported from the 1 μM concentration.
as §1
DAMGO was reconstituted in water at a 1 mM concentration and diluted in media to 20 µM such that spheroids would be treated with a final concentration of 10 μM after the half media exchange. Two aspects of OUD were modeled, chronic treatment along with opioid withdrawal. For spheroids subjected to chronic DAMGO treatment, 20 μM DAMGO in maintenance media was added via half media exchange beginning on day 10, with treatments occurring every other day for 10 days, giving a total of five treatments.
384 Pin Tool: A 384 well pin tool (Rexroth) was used to transfer compounds simultaneously to the spheroid plate. Prior to compound transfer, the pin tool went through four wash cycles where pins were rinsed with dimethyl sulfoxide (DMSO), followed by methanol, then deionized (DI) water, to ensure the pins were clean. Compound transfer via the 384 well pin tool occurred after the baseline recordings with the fluorescent imaging plate reader (FLIPR). Here, 60 nL of compound suspended in DMSO was transferred to 60 µL of media in each well, diluting the compounds by 1000-fold and giving a final DMSO concentration of 0.1%.

For assay [3], the system named is VTA-like spheroids. Kind of assay: FLIPR calcium activity with Cal6 dye, control compounds / DAMGO (Example 3). Particulars: VTA-like spheroids; for functional response (calcium activity peak parameters) to control compound: recordings 1-, 30-, 60-min after treatment. The protocol: as §2, §1
DAMGO was reconstituted in water at a 1 mM concentration and diluted in media to 20 µM such that spheroids would be treated with a final concentration of 10 μM after the half media exchange. Two aspects of OUD were modeled, chronic treatment along with opioid withdrawal. […]
384 Pin Tool: A 384 well pin tool (Rexroth) was used to transfer compounds simultaneously to the spheroid plate. […] Compound transfer via the 384 well pin tool occurred after the baseline recordings with the fluorescent imaging plate reader (FLIPR). […]

Assay [4] has as its system PFC-like spheroids. Kind of assay: FLIPR calcium activity profiling, compound addition (Examples 1-2). Particulars: FLIPR recordings 1-, 30-, 70-min after compound (t1, t30, t70). On the procedure:
(§3) To examine neuronal activity changes as a response to compound treatment, calcium activity was assessed using a Fluorescent Imaging Plate Reader (FLIPR) Penta (Molecular Devices). FLIPR Calcium 6 Assay kits were purchased from Molecular Devices (PN: R8190). On day of activity profiling, 96-well or 384-well ULA round bottom (black sides, clear bottom) plates containing spheroids were removed from incubator. Fresh FLIPR Calcium 6 dye was prepared by diluting each vial in 10 ml of freshly prepared, phenol-free complete spheroid maturation media and vortexed for 2 minutes. Half of the media was removed from each well (45 μl from 384-well plate wells, 100 ul from 96-well plate wells) and replaced with equal amounts freshly prepared FLIPR Calcium 6 dye, followed by a 2-hour incubation in the dark in a 37 C, 5% CO2 incubator. After 2-hours, plates were removed and kept at room temperature for 10 minutes, then imaged and calcium activity read using the Molecular Devices FLIPR Penta High-Throughput Cellular Screening System. The FLIPR incubator stage was pre-warmed to 37° C. approximately 30 minutes prior to imaging. Standard filter sets were used for Cal6 imaging (excitation 470-495 and emission 515-575 nm). FLIPR recordings were obtained with the camera in normal mode, and settings included: gain was set to 2.5, exposure time to 0.03 seconds, and excitation intensity to 50%. Fluorescent image reads were taken every 0.6 seconds for a total of 1000 reads over a total run time of 10 minutes. Four recordings total were captured: baseline activity, 1-min after compound treatment, 30- and 70-min after compound treatment.
(§4) After baseline activity, cell plates were removed from the FLIPR and transferred to a 384-well pin tool instrument. Prior to compound addition, the pin tool was subjected to 4 wash cycles exposing the pins to water, methanol, and DMSO each time. Compounds, including either “QC compounds” (compounds with known mechanism of action, listed in results) or the mu opioid receptor selective-agonist DAMGO, were transferred from a compound source plate to the 384-well spheroid plate. Immediately after compound transfer, the cell plate was placed back in the FLIPR for the recording that was 1-min after compound transfer to begin. After this 10-min recording, another recording was captured 30-min after compounds were transferred. After the 30-min recording, the plate was again removed from the FLIPR and transferred to the pin tool instrument. During this phase of compound transfer, naloxone was transferred to wells that received DAMGO during the first compound transfer. Following this second compound transfer, the cell plate was placed back in the FLIPR and a final recording was obtained 30-min later, and 70-min after the initial compound transfer.
(§5) The FLIPR software ScreenWorks PeakPro 2.0 was used for the initial analysis of calcium activity using automated peak detection settings. With these settings, average peak statistics over each 10-min recording for each well were exported from PeakPro to Microsoft Excel. ScreenWorks Peak Pro 2.0 software was used to extract 17 activity features describing different aspects of calcium activity profiles. These included peak amplitude (PkA), peak amplitude standard deviation (PkASD), peak count (PkCt), peak rate (measured as peaks per minute, PpM), peak rate SD, peak spacing (PkSp), peak spacing SD (PkSpSD), peak spacing regularity, area under the curve (AUC), AUC SD, peak rise slope, peak rise slope SD, peak rise time (PkRt), peak ride time SD (PkRtSD), peak decay slope, peak decay slope SD, peak decay time (PkDt), and peak decay time SD (PkDtSD). To assess variability of these peak parameters, percent coefficients of variance (CV) were calculated by dividing the standard deviation/mean and multiplying by 100 for each designer spheroid type, and those with % CV's […] 20% were removed from future analysis. […]

Assay [5] deals with VTA-like spheroids. The assay is described as above. Particulars: FLIPR recordings 1-, 30-, 70-min after compound (t1, t30, t70). On the procedure:
as §3, §4, §5

As for `COc1cccc(C=NCCN=Cc2cccc(OC)c2[O-])c1[O-].[Cl-].[Mn+3]` [EUK-134], the “reversal of APOE4-induced deficits in peak count and spacing” value (“reversal of APOE4-induced deficits” for short) in assay [1] is “reverse deficits caused by APOE4 GABA neurons; also recorded: restore deficits in peak count”.

For `NCc1cc(=O)[nH]o1` [Muscimol], the “functional response (calcium activity peak parameters) to control compound” value in assay [2] was “complete inhibition of activity that began immediately after treatment and persisted for at least 60-min”; in assay [3], “complete inhibition of activity that began immediately after treatment and persisted for at least 60-min”. Moreover, the “effect on calcium activity peak parameters compared to DMSO controls” value in assay [4] and in assay [5] was “total inhibition of calcium activity that lasted throughout the entire recording period” each time.

Consider `CCN1CCCC1CNC(=O)c1cc(S(N)(=O)=O)ccc1OC` (stereo not shown) [Sulpiride], for which the “functional response (calcium activity peak parameters) to control compound” value is “increased peak count and rate while decreasing peak spacing” in assay [2]; “no changes were observed in measures of peak frequency but increases in peak width and peak decay time were observed” in assay [3]. Besides, the “effect on calcium activity peak parameters compared to DMSO controls” value in assay [4] is “significantly increased PkCt and PpM while decreasing PkSp 70-min after treatment”; in assay [5] it was “did not impact calcium activity, though there was a statistical trend toward significantly increasing PkCt 1-min after treatment”.

For the compound `CC12CC3CC(C)(C1)CC(N)(C3)C2` [Memantine], the “reversal of APOE4-induced deficits” value in assay [1] is listed as “reverse deficits caused by APOE4 GABA neurons; also recorded: restore deficits in peak count”. Besides, the “functional response (calcium activity peak parameters) to control compound” value is “increases in peak count and rate and decreases in peak amplitude” in assay [2]; “increases in peak count and rate and decreases in peak amplitude” in assay [3].

As for `C=CCN1CC[C@]23c4c5ccc(O)c4O[C@H]2C(=O)CC[C@@]3(O)[C@H]1C5` [naloxone], the “effect on peak count and peak spacing” value in assay [2] (PFC-like chronic DAMGO-treated spheroids) is “those treated with naloxone no longer showed significant differences in these peak parameters compared to DMSO-treated controls; also recorded: reverses deficits induced by chronic opioid treatment in PFC-like but not VTA-like spheroids”; in assay [2] (PFC-like control spheroids) it was “reversed deficits in peak count and spacing in acute DAMGO-treated control spheroids”. The “reversal of deficits induced by chronic opioid treatment” value in assay [3] (chronic DAMGO pre-treatment) is “reverses deficits induced by chronic opioid treatment in PFC-like but not VTA-like spheroids”.

As for `COc1cc2c(cc1OC)C(=O)C(CC1CCN(Cc3ccccc3)CC1)C2` (stereo not shown) [Donepezil], in assay [1], the “reversal of APOE4-induced deficits” value was “reverse deficits caused by APOE4 GABA neurons; also recorded: restore deficits in peak count”.
